Measured values published in patent publication US5668168A, “1,2-dithiin antiinfective agents” (Shaman Pharmaceuticals, Inc., priority 1995, dated 1997).
In brackets after ≈: the same amount, converted by molar mass. Like-named read-outs stand apart in the source and are kept apart here.

Legend:
fungi = test: In vitro susceptibility tests (MIC and MFC), overall statements; format: cell-based; conditions: Candida, Cryptococcus, Aspergillus, medically important fungi
Experimental: (§1) MIC tests were performed by a microdilution broth assay. The fungi tested were Candida albicans ATCC 10259 and strain B311, Cryptococcus neoformans ATCC 36556, Aspergillus fumigatus ATCC 13073, and Trichophyton rubrum ATCC 18762. The yeasts were propagated on yeast morphology agar, while the filamentous fungi were grown on Sabouraud's agar. All tests were performed in Sabouraud's broth in 96-well microliter plates, with compounds diluted serially, then inoculated with 2×10^4 cfu/ml for C. albicans, 4×10^4 cfu/ml for C. neoformans, 1×10^3 cfu/ml for A. fumigatus, and 1×10^3 cfu/ml for T. rubrum (all expressed as final concentrations). Plates were incubated at 30° C. for 48 h for all fungi except T. rubrum, which was incubated for 5 days. MIC's were read as the lowest concentration completely inhibiting growth. After MIC endpoints were determined, 50 ul portions were removed and plated on yeast morphology agar to detect viable organisms, and were incubated at 30° C. for 48 h. The MFC was determined to be the well with the lowest concentration resulting in no growth.

[1] = tested on: Cryptococcus neoformans ATCC 36556; test: In vitro susceptibility, microdilution broth MIC, C. neoformans; format: cell-based; conditions: ATCC36556, 48 h
Experimental: as §1

[2] = tested on: Candida albicans strain B311; test: In vitro susceptibility, microdilution broth MIC, C. albicans B311; format: cell-based; conditions: Table 1a, Sabouraud's broth, 30° C., 48 h
Experimental: as §1

[3] = tested on: Candida albicans ATCC 10259; test: Minimum fungicidal concentration (MFC), C. albicans ATCC 10259; format: cell-based; conditions: ATCC10259, 48 h, read-out: MIC (as headed), C. albicans 10259 (MFC)
Experimental: as §1

[4] = tested on: Aspergillus fumigatus ATCC 13073; test: In vitro susceptibility, microdilution broth MIC, A. fumigatus; format: cell-based; conditions: ATCC13073, 48 h
Experimental: as §1

[5] = tested on: Candida albicans ATCC 10259; test: In vitro susceptibility, microdilution broth MIC, C. albicans ATCC 10259; format: cell-based; conditions: ATCC10259, 48 h
Experimental: as §1

[6] = tested on: Trichophyton rubrum ATCC 18762; test: In vitro susceptibility, microdilution broth MIC, T. rubrum; format: cell-based; conditions: ATCC18762, 120 h, Table 1a, Sabouraud's broth, 30° C., 5 days
Experimental: as §1

[7] = tested on: Candida albicans strain B311; test: Minimum fungicidal concentration (MFC), C. albicans B311; format: cell-based; conditions: B311, 48 h, Table 1a, seventh value column, read-out: MIC (as headed), C. albicans B311 (MFC)
Experimental: as §1

[8] = tested on: dermal irritation and erythema, ear of ICR mice; test: Dermal toxicology (irritation) test in ICR mice; format: in vivo; conditions: 10 mg topically
Experimental: Thiarubrine A and a new 1,2-dithiin compound 3,6-bis(hydroxymethyl)-1,2-dithiin were tested for the ability to elicit dermal irritation in ICR mice. Animals in groups of five each were lightly anesthetized, then the test substance, previously dissolved in aquaphor, was applied in the amount of 10 mg topically to the dorsal aspect of the right ear. Aquaphor without test substance was applied to the left ear as a control. Animals were inspected daily for five days for signs of dermal irritation and erythema, which was scored subjectively on a scale from 1 to 15, with 15 indicating severe toxicity.

[9] = isolated from Aspilia mossambicesis and A. plurisetta; literature; cited from earlier work
[10] = Systemic toxicology test in ICR mice, intraperitoneal; format: in vivo; conditions: mouse, in vivo, ip
Experimental: (§2) Thiarubrine A and the novel 3,6-bis(hydroxymethyl)-1,2-dithiin have also been evaluated for their systemic toxicity potential. ICR mice, in groups of five or six each were injected with solutions of the test compound given intraperitoneally for three consecutive days for thiarubrine A and five consecutive days for the 1,2-dithiin. Animals were weighed daily and observed for mortalities over a 14 day period. An LD50 of 0.6 mg/kg for thiarubrine A was determined.

ICR mice = test: as above; format: in vivo; conditions: three consecutive days
Experimental: as §2

[11] = Table 1a, Sabouraud's broth, 30° C., read-out: MIC C. neoformans
[12] = Table 1b, Sabouraud's broth, 30° C., read-out: MIC C. neoformans
[13] = Table 1a, Sabouraud's broth, 30° C., read-out: MIC A. fumigatus
[14] = Table 1b, Sabouraud's broth, 30° C., read-out: MIC A. fumigatus
[15] = Table 1a, Sabouraud's broth, 30° C., read-out: MIC C. albicans 10259
[16] = Table 1b, Sabouraud's broth, 30° C., read-out: MIC C. albicans 10259

Structure (SMILES)	MIC [1, 11] [mg/L]	MIC [1, 12] [mg/L]	MFC ([3]; Table 1a) [mg/L]	MIC [4, 13] [mg/L]	MIC [4, 14] [mg/L]	MIC [5, 15] [mg/L]	MIC [5, 16] [mg/L]	other results
OCC1=CC=C(CO)SS1 [Dithiin A, 3,6-Bis(hydroxymethyl)-1,2-dithiin]	2 (≈ 11.3 µM)	1.6 (≈ 9.08 µM)	63 (≈ 357 µM)	16 (≈ 90.8 µM)	6.3 (≈ 35.7 µM)	16 (≈ 90.8 µM)	25 (≈ 142 µM)	In vitro antifungal activity (in words) (fungi): potent broad spectrum antifungal activity; MIC [2]: 31 mg/L (≈ 176 µM); MIC [6]: 16 mg/L (≈ 90.8 µM)
CC(=O)OCC1=CC=C(COC(C)=O)SS1 [Dithiin B, 3,6-Bis(acetyloxymethyl)-1,2-dithiin]	0.8 (≈ 3.07 µM)	0.8 (≈ 3.07 µM)	6.3 (≈ 24.2 µM)	0.4 (≈ 1.54 µM)	0.2 (≈ 0.768 µM)	3.1 (≈ 11.9 µM)	3.1 (≈ 11.9 µM)	
CC1=CC=C(CO)SS1 [Dithiin C]						12.5 (≈ 78 µM)		
COCOCC1=CC=C(COCOC)SS1 [Dithiin D]	8 (≈ 30.3 µM)		> 250	63 (≈ 238 µM)		31 (≈ 117 µM)		MIC [2]: 125 mg/L (≈ 473 µM); MIC [6]: 8 mg/L (≈ 30.3 µM); MFC [7]: 125 mg/L (≈ 473 µM)
O=CC1=CC=C(C=O)SS1 [Dithiin E, 3,6-Diformyl-1,2-dithiin]	4 (≈ 23.2 µM)		8 (≈ 46.4 µM)	8 (≈ 46.4 µM)		8 (≈ 46.4 µM)		MIC [2]: 8 mg/L (≈ 46.4 µM); MIC [6]: 4 mg/L (≈ 23.2 µM); MFC [7]: 8 mg/L (≈ 46.4 µM)
CCC(=O)OCC1=CC=C(COC(=O)CC)SS1 [Dithiin G, 3,6-Bis(propionyloxymethyl)-1,2-dithiin]		6.3 (≈ 21.8 µM)			3.1 (≈ 10.7 µM)		12.5 (≈ 43.3 µM)	
CC(C)C(=O)OCC1=CC=C(COC(=O)C(C)C)SS1 [Dithiin H, 3,6-Bis(isobutyryloxymethyl)-1,2-Dithiin]		> 100			> 100		> 100	
O=C(OCC1=CC=C(COC(=O)C2CC2)SS1)C1CC1 [Dithiin I, 3,6-Bis(cyolopropanecarbonyloxymethyl)-1,2-dithiin]		3.1 (≈ 9.92 µM)			1.6 (≈ 5.12 µM)		6.3 (≈ 20.2 µM)	
O=C(OCC1=CC=C(CO)SS1)C1CC1 [Dithiin J]		1.6 (≈ 6.55 µM)			0.8 (≈ 3.27 µM)		3.1 (≈ 12.7 µM)	
C=CC#CC#CC1=CC=C(C#CC)SS1 [Thia A, thiarubrine A]								Dermal irritation and erythema ([8]; five days): pronounced toxicity; Average score for dermal irritation, treated ear, Day 3 ([8]; Day 3, scale 1 to 15): 7; Average score for dermal irritation, treated ear, Day 4 ([8]; Day 4, scale 1 to 15): 9; Average score for dermal irritation, treated ear, Day 5 ([8]; Day 5, scale 1 to 15, control ear 4): 9; Average score for dermal irritation, treated ear, Day 2 ([8]; first column pair of Table 2, headed Day 2, scale 1 to 15): 4; Average score for dermal irritation, treated ear, Day 2 ([8]; second column pair of Table 2, headed Day 2, scale 1 to 15): 6; MIC ([1]; read-out: MIC C. neoformans, Table 1a, Sabouraud's broth, 30° C.): 0.61 mg/L (≈ 2.67 µM); MIC ([1]; read-out: MIC C. neoformans, Table 1b, Sabouraud's broth, 30° C.): 0.78 mg/L (≈ 3.42 µM); Biological activity (in words) [9]: wide spectrum of biological activity including antiviral and antibiotic activities; MFC [3]: 0.3 mg/L (≈ 1.31 µM); MIC ([4]; read-out: MIC A. fumigatus, Table 1a, Sabouraud's broth, 30° C.): 0.15 mg/L (≈ 0.657 µM); MIC ([4]; read-out: MIC A. fumigatus, Table 1b, Sabouraud's broth, 30° C.): 0.1 mg/L (≈ 0.438 µM); MIC ([5]; read-out: MIC C. albicans 10259, Table 1a, Sabouraud's broth, 30° C.): 0.15 mg/L (≈ 0.657 µM); MIC ([5]; read-out: MIC C. albicans 10259, Table 1b, Sabouraud's broth, 30° C.): 0.39 mg/L (≈ 1.71 µM); LD50 at 336 h ([10]; three consecutive days, 14 day observation, read-out: LD50): 0.6 mg/kg; LD50 at 336 h ([10]; total dose over three days, read-out: LD50, total dose): ~1.8 mg/kg; Systemic toxicity (in words) (ICR mice): highly toxic
C=CC#CC1=CC=C(C#CC#CC)SS1 [thiarubrine B]								Biological activity (in words) [9]: wide spectrum of biological activity including antiviral and antibiotic activities
